Results from patent US7223733B2, “Modulation of TRIP-Br function and method of treating proliferative disorders” (National University of Singapore, priority 2004, dated 2007).
Where no end group is shown, it is not given here.

Key:
cyclins A, D and E = assay: Western blot of cyclins A, D and E in U2OS cells exposed to decoy peptides; type: cell-based, human; details: U2OS, 5, 10 or 20 μM, 48 h
Experimental: Denaturing SDS-PAGE and western blotting. Proteins from whole cell lysate and IP complexes were separated using standard denaturing polyacrylamide gel electrophoresis as described previously (Hsu, S. I. H., et al. EMBO J 20, 2273-2285 (2001)).
FIG. 8: The role(s) of the TRIP-Br integrator function in cyclin E regulation. (A) Western blot analysis of the expression of cyclins A, D and E in whole cell extracts derived from U2OS cells exposed to 5, 10 or 20 μM of decoy peptides for 48 h. Cdk2 served as a loading control; (B) Dosage-dependent effects of decoy peptides on Fbxw7 expression. U2OS cells exposed to 5, 10 or 20 μM of decoy peptides were analyzed for Fbxw7 mRNA transcript levels by semi-quantitative RT-PCR. H-actin was co-amplified as an internal control; (C) cyclin-E and Fbxw7 expression was analyzed by semi-quantitative RT-PCR using total RNA from sub-confluent U2OS ER-E2F-1 cells grown with or without OHT and/or cycloheximide (CHX) for 2 h as indicated. H-actin was included as an internal control.

[1] = system: E2F-responsive luciferase reporter (pGL3-TATA-6xE2F-Luc); assay: E2F-responsive luciferase reporter assay in U2OS cells; type: cell-based, human; details: 50 μM, 5 h
Experimental: DNA Transfection and Sequential β-Galactosidase/Luciferase Assay. For luciferase reporter assays, U2OS cells were cultured in 6-well dishes and transfected 24 h later with various reporter plasmids by the calcium precipitation method as previously described (Martin, K., et al. Nature 375, 691-694 (1995)). 24 h following precipitate removal, cells were exposed for 5 h to either vehicle (0.5% DMSO) or 50 μM of decoy peptide, prior to harvesting. Cells were scraped in 200 μl of lysis buffer and a single 10 μl aliquot of lysate was immediately used for sequential measurement of β-galactosidase and luciferase activity using the Dual Light System (Tropix). For protein overexpression experiments, U2OS cells were cultured in 6-well plates at a density of 1×10^5 cells/well and transfected 24 h later with Superfect reagent (QIAGEN).
FIG. 3: Analysis of E2F-responsive transcription in U2OS cells in response to decoy peptide treatment. […] Values represent the average +/− standard deviation of at least two independent experiments; (B) Semi-quantitative RT-PCR analysis on total RNA for dhfr, cyclin-E, cyclin A2, PCNA, DNA Pola and cdc2 expression in U2OS cells exposed for 16 h to either vehicle (0.5% DMSO) or 50 μM of the indicated decoy peptides. […]

CNE2 tumor = assay: Chick embryo chorioallantoic membrane (CAM) tumor xenograft model; type: in vivo; details: 50 μM topically, daily; p<0.05
Text: Cell lines. Human nasopharyngeal cancer cell line CNE2 and human melanoma cell line Mewo were used for tumor inoculation.
Chicken embryo CAM preparation. To apply cells onto the CAM of 10-day old chick embryos, a 2-cm diameter wide window was opened in the flat pole of the eggshell with an electric drill equipped with a 0.3-mm thick×22-mm diameter Carborundum disc. The shell window was removed with forceps. The inner shell membrane was carefully punctured with a fine sterile forcep and removed to expose the underlying CAM. A small portion of the CAM was then gently traumatized by laying a strip of lens tissue (1-cm wide) on the surface of the CAM and then removing it immediately.
Inoculation, closure & incubation. The inoculum (1×10^6 cells/egg for CNE2 cell line and 3×10^6 cells/egg for Mewo cell line in 50 μl of blank medium) was applied onto the small patch of traumatized CAM. Following inoculation, the window was covered with a 35 mm tissue culture dish and sealed with scotch tape. The embryos were returned to the incubator in an upright position and allowed to incubate for seven additional days, with daily monitoring.
Peptide treatment & assessment of growth inhibitory effects. The treatment was initiated two days after tumor inoculation.
The eggs were randomized into 4 treatment groups, with each group comprising at least 4 biological replicates. […]

ERQIKIWFQNRRMKWKKATGCLLDDGLEGLFEDID (ERQIKIWFQNRRMKWKKATGCLLDDGLEGLFEDID-NH2) [*Br1]
cyclin E protein level (cyclins A, D and E): dose-dependent accumulation of cyclin E protein
protein levels of cyclin D1 and cyclin A2 (cyclins A, D and E): without affecting the protein levels
transcriptional activity of the E2F-responsive luciferase reporter [1]: decreased the transcriptional activity
growth of CNE2 tumor (tumour weight) (CNE2 tumor): significantly inhibited the growth of CNE2 tumor

ERQIKIWFQNRRMKWKKTGFLTDLTLDDILFADID (ERQIKIWFQNRRMKWKKTGFLTDLTLDDILFADID-NH2) [*Br2]
cyclin E protein level (cyclins A, D and E): dose-dependent accumulation of cyclin E protein
protein levels of cyclin D1 and cyclin A2 (cyclins A, D and E): without affecting the protein levels
transcriptional activity of the E2F-responsive luciferase reporter [1]: decreased the transcriptional activity
growth of CNE2 tumor (tumour weight) (CNE2 tumor): significantly inhibited the growth of CNE2 tumor
